Measurements reported in patent US11179380B2, “Compounds and compositions for use in treating psoriasis” (SOLVOTRIN THERAPEUTICS LTD, priority 2017, dated 2021).
Where two headings read alike, the source gives them in different places.

Legend:
[1] = Log P from reversed-phase TLC Rf/Rm values (MeOH in water mobile phases); conditions: for Rm: calculated from Rf
Description: The partition coefficient (P) is used to describe the lipophilicity of a drug. It is defined as the ratio of equilibrium concentrations of a drug in an organic phase (Corg) and an aqueous phase (Caq).
Most commonly the organic solvent is n-octanol and the other solvent is water. Hydrophobic molecules will have a high P value while hydrophilic molecules will have a low P value.
Rm values were calculated from Rf values that were obtained at three different mobile phase compositions (40, 50 and 60% MeOH in water).
The Rm value was calculated using the following equation: […]
The theoretical Rm value at 0% organic modifier was calculated by extrapolating from the calibration curves that were obtained. These values were then correlated to the literature log P of two reference compounds (methyl benzoate and paracetamol).

[2] = literature log P of reference compounds; cited from earlier work
Aldara-treated mice = test: Aldara-induced model of psoriasis in mice, clinical scoring (PASI); assay type: in vivo, mice (C57BL/6J); conditions: for PASI scores: relative to Vehicle; for inflammation in the mouse psoriasis model: summary statement in RESULTS
Description: Specific Pathogen-Free female C57BL/6J strain mice, 6-8 weeks of age, were obtained from a commercial supplier and bred in-house (JAX, Charles River). Mice were fed irradiated diet and housed in individually ventilated cages (Tecniplast, UK) under positive pressure. All animal experiments were performed in compliance with the Health Products Regulatory Authority and approved by the Trinity College Dublin's BioResources ethical review board.
The Aldara-induced model of psoriasis was used (Flutter and Nestle, 2013; Morwietz, 2015; Russell et al., 2013; van der Fits et al., 2009). The dorsal skin of mice was shaved and depilated on day −1. Mice were that were in the telogen phase (resting phase) of the hair cycle were chosen for experiments. Mice with visual skin damage from shaving were excluded. Mice were then randomly divided into groups for treatment with topical application of vehicle (white petroleum jelly) or Solvotrin test compounds, prepared in white petroleum jelly. On day 0, mice were scored for disease signs, as per below. After which 62.5 mg of Aldara™ cream (5% Imiquimod; MEDA Pharmaceuticals) was applied to a defined area of the shaved dorsal skin surface. Thirty minutes after the Aldara application, test compounds or vehicle was applied to the dorsal flank, to cover the entire Aldara-challenged surface, with an even layer of the white petroleum. This process was repeated for a further 5 days. Mice were scored daily. On day 6 the mice were euthanized for tissue collection.
The skin of mice was scored for signs of psoriasis-like inflammation for a total of 7 days, (i.e. days 0-6), as described (van der Fits et al., 2009). Mice were scored according to 3 parameters: erythema (the redness of skin); thickening of the skin; and scaling (dryness and flaking of the skin). For each parameter, the mice were scored on a scale from 0-4. Mice with no pathology were scored 0. Mice with mild pathology scored 1. […] The total, or Psoriasis Area and Severity Index (PASI), score was the cumulative score of all three parameters. Therefore for each mouse studied the PASI score can range between 0 to 12.
Power calculations on data from previous studies have shown that a sample size of at least 6 will detect significant difference (P<0.05) in PASI scores between groups. ANOVA and Dunnett Multiple Comparison Test determined statistical differences between multiple groups. Two tailed Student's t-test was used to compare statistical differences between two groups.
Unless otherwise specified percentage concentration of a test compound in a composition refers to the weight percent of said test compound in the composition. For example, application of 2% compound X, means application of a composition comprising 2 weight percent of compound X.

IMQ on mouse skin = conditions: topical; cited from earlier work
normal healthy skin = test: Assessment of erythema and itchiness after topical application to shaved forearm; assay type: in vivo
Description: Test article dispersed in petroleum jelly was applied to a 2×2 cm patch of shaved forearm (n=3). At specified time intervals the degree of erythema was recorded by blinded observers on a scale of 1-4 (n=3). Itchiness was observed by scratching behaviour also by blinded observers on a scale of 1-4. The time course of erythema resolution was recorded at 30 minute intervals.

[3] = theoretical Rm at 0% organic modifier
[4] = 3% in petroleum jelly, statistically significant (P<0.05) only on day 3
[5] = 3% in petroleum jelly, vs Vehicle
[6] = in petroleum jelly (concentration not given), vs Vehicle

O=[N+]([O-])O[C@@H]1CO[C@H]2[C@@H]1OC[C@@H]2O [ISMN, isosorbide mononitrate, reference compound] showed a Rf ([1]; 40% MeOH in water) of 0.6060, a Rm ([1]; 40% MeOH in water) of −0.1870 and a Rf ([1]; 50% MeOH in water) of 0.6530. For the same molecule, the Rm ([1]; 50% MeOH in water) was −0.2746, the Rf ([1]; 60% MeOH in water) was 0.7000 and the Rm ([1]; 60% MeOH in water) was −0.3680. The “Log P (calculated)” value ([1]; from extrapolated Rm correlated to literature log P of methyl benzoate and paracetamol) was −0.333 and the “Extrapolated Rm (y value)” value [1, 3] was 0.176.
In the case of CC(=O)OC1COC2C(OC(=O)c3cccnc3)COC12 (centres unmarked) [Isosorbide-2-Acetate-5-nicotinate, Isosorbide 2-acetate-5-nicotinate], the “Extrapolated Rm (y value)” value [1] is reported as 1.2763, the “Log P (calculated)” value [1] is reported as 1.3369 and the Rf ([1]; 40% MeOH in water) is reported as 0.2860. The Rm ([1]; 40% MeOH in water) was 0.3973, the Rf ([1]; 50% MeOH in water) was 0.3730 and the Rm ([1]; 50% MeOH in water) was 0.2256. The Rf ([1]; 60% MeOH in water) was 0.5200 and the Rm ([1]; 60% MeOH in water) was −0.0348.
For O=C(OC1COC2C(OC(=O)c3cccnc3)COC12)c1ccccc1 (centres unmarked) [Isosorbide-2-Benzoate-5-nicotinate, Isosorbide 2-benzoate-5-nicotinate], the “Extrapolated Rm (y value)” value [1] was 3.5292, the “Log P (calculated)” value [1] was 4.7555 and the Rf ([1]; 40% MeOH in water) was 0.0260. It also gave a Rm ([1]; 40% MeOH in water) of 1.5736, a Rf ([1]; 50% MeOH in water) of 0.0870 and a Rm ([1]; 50% MeOH in water) of 1.0210. For the same molecule, the Rf ([1]; 60% MeOH in water) was 0.2060 and the Rm ([1]; 60% MeOH in water) was 0.5860.
With CCCC(=O)O[C@H]1CO[C@H]2[C@@H]1OC[C@H]2OC(=O)c1cccnc1 [Isosorbide-2-Butyrate-5-nicotinate, Isosorbide 2-butyrate-5-nicotinate] the “Extrapolated Rm (y value)” value [1] was 2.2483, the “Log P (calculated)” value [1] was 2.8118 and the Rf ([1]; 40% MeOH in water) was 0.1060. For the same molecule, the Rm ([1]; 40% MeOH in water) was 0.9260, the Rf ([1]; 50% MeOH in water) was 0.2067 and the Rm ([1]; 50% MeOH in water) was 0.5841. The Rf ([1]; 60% MeOH in water) was 0.3530 and the Rm ([1]; 60% MeOH in water) was 0.2631.
For CCC(=O)OC1COC2C(OC(=O)c3cccnc3)COC12 (centres unmarked) [Isosorbide-2-Propionate-5-nicotinate, Isosorbide 2-propionate-5-nicotinate], the “Extrapolated Rm (y value)” value [1] was 1.9553, the “Log P (calculated)” value [1] was 2.367 and the Rf ([1]; 40% MeOH in water) was 0.1600. For the same molecule, the Rm ([1]; 40% MeOH in water) was 0.7202, the Rf ([1]; 50% MeOH in water) was 0.2730 and the Rm ([1]; 50% MeOH in water) was 0.4254. The Rf ([1]; 60% MeOH in water) was 0.4400 and the Rm ([1]; 60% MeOH in water) was 0.1047.
For CCCCC(=O)O[C@H]1CO[C@H]2[C@@H]1OC[C@H]2OC(=O)c1cccnc1 [Isosorbide-2-Valeroate-5-nicotinate, Isosorbide 2-valeroate-5-nicotinate], the “Extrapolated Rm (y value)” value [1] was 2.9143, the “Log P (calculated)” value [1] was 3.8225 and the Rf ([1]; 40% MeOH in water) was 0.0530. It also gave a Rm ([1]; 40% MeOH in water) of 1.2521, a Rf ([1]; 50% MeOH in water) of 0.1200 and a Rm ([1]; 50% MeOH in water) of 0.8653. The Rf ([1]; 60% MeOH in water) was 0.2730 and the Rm ([1]; 60% MeOH in water) was 0.4254.
For COC(=O)c1ccccc1 [Methyl Benzoate, methyl benzoate, reference compound], the “Log P (ref)” value [2] is given as 2.2 (1), the “Log P (calculated)” value [1] is given as 2.2 and the Rf ([1]; 40% MeOH in water) is given as 0.1460. The Rm ([1]; 40% MeOH in water) was 0.7671, the Rf ([1]; 50% MeOH in water) was 0.1867 and the Rm ([1]; 50% MeOH in water) was 0.6391. The Rf ([1]; 60% MeOH in water) was 0.3600, the Rm ([1]; 60% MeOH in water) was 0.2499 and the “Extrapolated Rm (y value)” value [1, 3] was 1.845.
For CC(=O)Nc1ccc(O)cc1 [Paracetamol, paracetamol, reference compound], the “Log P (ref)” value [2] is given as 0.48 (2), the Rf ([1]; 40% MeOH in water) is given as 0.5460 and the Rm ([1]; 40% MeOH in water) is given as −0.0801. It also gave a Rf ([1]; 50% MeOH in water) of 0.6270, a Rm ([1]; 50% MeOH in water) of −0.2256 and a Rf ([1]; 60% MeOH in water) of 0.7460. The Rm ([1]; 60% MeOH in water) was −0.4679 and the “Extrapolated Rm (y value)” value [1, 3] was 0.7116.
In the case of CC(=O)Oc1ccccc1C(=O)OC1COC2C(OC(=O)c3ccccc3O)COC12 (centres unmarked) [ST0701, Isosorbide-2-aspirinate-5-salicylate], the PASI scores (Aldara-treated mice; [4]) is reported as “reduced the PASI scores”, the erythema (Aldara-treated mice; [5]) is reported as “reduced levels of elevated skin thickness and erythema” and the skin thickness (Aldara-treated mice; [5]) is reported as “reduced levels of elevated skin thickness”. For the same molecule, the “inflammation in the mouse psoriasis model” value (Aldara-treated mice) was “did not inhibit inflammation”.
In the case of O=C(O[C@@H]1CO[C@H]2[C@@H]1OC[C@@H]2OC(=O)c1ccccc1O)c1cccnc1 [ST0702Sal, Isosorbide-2-salicylate-5-nicotinate], the PASI scores (Aldara-treated mice; in petroleum jelly (concentration not given), days 4, 5 and 6) is reported as “significantly reduced”, the Aldara-induced scaling (Aldara-treated mice; [6]) is reported as “significantly (P<0.001) reduced” and the erythema (Aldara-treated mice; [6]) is reported as “not altered”. For the same molecule, the skin thickness (Aldara-treated mice; [6]) was “not altered”.
For CC(=O)Oc1ccccc1C(=O)O[C@H]1CO[C@H]2[C@@H]1OC[C@H]2OC(=O)c1ccncc1 [ST0703, Isosorbide-2-aspirinate-5-isonicotinate], the PASI scores (Aldara-treated mice; [4]) was “reduced the PASI scores”, the erythema (Aldara-treated mice; [5]) was “reduced levels of elevated skin thickness and erythema” and the skin thickness (Aldara-treated mice; [5]) was “reduced levels of elevated skin thickness”. The “inflammation in the mouse psoriasis model” value (Aldara-treated mice) was “did not inhibit inflammation”.
For C=C1/C(=C\C=C2/CCC[C@]3(C)[C@@H]([C@H](C)/C=C/[C@@H](O)C4CC4)CC[C@@H]23)C[C@@H](O)C[C@@H]1O [calcipotriol], the “IMQ-induced increased thickness of epidermal and subcutaneous tissue” value (IMQ on mouse skin) is listed as “exacerbated”, the thickness reduction (IMQ on mouse skin) is listed as “ineffective” and the “cumulative irritancy score (irritancy/erythema)” value (normal healthy skin; 0.005%) is listed as “did cause erythema”.
For C[C@H]1C[C@H]2[C@@H]3CCC4=CC(=O)C=C[C@]4(C)[C@@]3(F)[C@@H](O)C[C@]2(C)[C@@]1(O)C(=O)CCl [clobetesol], the thickness reduction (IMQ on mouse skin) is given as “best”.
For O=C(O)c1cccnc1 [niacin], the temporal erythema response (normal healthy skin; 5% in petroleum jelly) was “persisted in the niacin case up to six hours” and the skin irritation (normal healthy skin; in vivo) was “causes skin irritation”.
In the case of O=C(O)c1ccccc1O [salicylic acid], the “cumulative irritancy score (irritancy/erythema)” value (normal healthy skin; 2%) is reported as “did cause erythema”.
In the case of CCOC(=O)c1ccc(C#Cc2ccc3c(c2)C(C)(C)CCS3)nc1 [tazarotene], the “IMQ-induced increased thickness of epidermal and subcutaneous tissue” value (IMQ on mouse skin) is listed as “exacerbated” and the thickness reduction (IMQ on mouse skin) is listed as “ineffective”.
